The text below walks through data of patent US7767417B2, “Prenyl-electrostatic switch, and methods of use” (New York University, priority 2004, dated 2010).

The subject of one data set is GFP-K-Ras. Description: Live-cell imaging of GFP-K-Ras translocation from plasma membrane to internal membranes. It counts as cell-based, human. To be noted: for effect of inhibitor pretreatment on stimulated K-Ras translocation: 100 nM Ro 31-8220 or 15 μg/ml W-13, 10 min prior to stimulation with bryostatin-1 or PMA+Iono. The procedure: COS-1, HeLa, and MDCK cells were maintained in 5% CO2 in Dulbecco's Modified Eagle Medium (“DMEM”) supplemented with 4 mM 1-glutamine, 1.5 g/L sodium bicarbonate, 4.5 g/L glucose, and 10% fetal bovine serum (“FBS”) (Cellgro®). MDCK cells stably expressing GFP-K-Ras or GFP-H-Ras were selected in G418 and sorted by FACS to yield cell lines expressing relatively low levels of the fluorescent Ras proteins (1-3 fold endogenous by immunoblots). NIH 3T3 cells were maintained in 10% CO2 in DMEM supplemented with 4 mM 1-glutamine, 1.5 g/L sodium bicarbonate, 4.5 g/L glucose, and 10% calf serum (Colorado Serum Co., Denver, Colo.). Jurkat T cells were maintained in 5% CO2 in RPMI containing 10% FBS. Cells to be examined by fluorescence microscopy were seeded at 2×10^5 per plate into 35 mm dishes containing a glass coverslip-sealed 15 mm cutout (MatTek, Ashland, Mass.) and transfected the next day using Lipofectamine (Invitrogen, Carlsbad, Calif.; NIH 3T3), Lipofectamine 2000 (Invitrogen, Carlsbad, Calif.; COS-1, HeLa, MDCK), or DMRIE (Invitrogen, Carlsbad, Calif.; Jurkat), according to the manufacturers' instructions. To ensure co-transfection of untagged cDNAs and fluorescent constructs, a DNA ratio of at least 5:1 (untagged:fluorescent) was used.
(§1) Cells were stimulated while under continuous observation by adding 100 nM bryostatin-1 (Biomol), 100 nM PMA with or without 500 ng/ml lonomycin, or 5 ng/ml anti-CD3 to 35 mm MatTek plates maintained at 37° C. using a PDMI-2 microincubator (Harvard Apparatus, Holliston, Mass.). Treatment of cells with 100 nM Ro 31-8220 (Biomol, Plymouth Meeting, Pa.) or 15 μg/ml W-13 Hydrochloride (EMD Biosciences, San Diego, Calif.) was initiated 10 min prior to stimulations. Where indicated, 25 pM MitoTracker Red CMXRos (Molecular Probes, Eugene, Oreg.) was added 10 min prior to stimulation. Living cells were imaged with a Zeiss 510 inverted laser scanning confocal microscope (“LSM”). A minimum of five […] Z slices were acquired for each cell at each time point and representative images were chosen to display both plasma membrane and endomembranes. Fluorescence resonance energy transfer (“FRET”) on mitochondria between CFP-K-Ras and YFP-Bcl-XL was detected by bleaching the acceptor (YFP-Bcl-XL) on individual mitochondria and measuring the increase in CFP emission intensity as quenching was released. FRET efficiency was calculated as [ICFP(post-bleach)−ICFP(pre-bleach)]/ICFP(post-bleach). TIFF images were processed with Adobe Photoshop 7.0.

The next data set concerns a variety of tumors. To be noted: phase I and II trials, cited from earlier work.
Data set [1] concerns K-Ras12V-dependent tumors. Kind of data set: Tumor growth assay in nude mice. The following applies: intraperitoneal 25 μg/kg daily for 3 days. It counts as in vivo, athymic nude BALB/c mice. The procedure:
NIH 3T3 cells stably transfected as per the soft agar assays were injected (5×10^5 cells) subcutaneously into the flanks of 4-6 week old athymic nude BALB/c mice. After formation of palpable tumors, mice were treated daily for 3 days with intraperitoneal DMSO vehicle or bryostatin-1 (25 μg/kg). Tumor volume was measured daily and differences in growth rates were evaluated for statistical significance by ANOVA.

The subject of another data set is endogenous Ras. Description: Anti-Ras immunogold electron microscopy of Jurkat T cells. It counts as cell-based. On the procedure: Jurkat cells (in suspension) were treated with 100 nM bryostatin-1 or vehicle (dimethyl sulfoxide (“DMSO”)) for 30 minutes at 37° C. and then fixed with 2% formaldehyde and 0.2% glutaraldehyde in 0.1 M sodium phosphate buffer, pH 7.4. After washing in buffer, the cells were pelleted by centrifugation, embedded in 10% gelatin, cooled in ice, and cut into 1-mm^3 blocks in the cold room. The blocks were infused with 2.3 M sucrose at 4° C. for at least 2 hours, frozen in liquid nitrogen, and stored until cryo-ultramicrotomy. 100-nm-thick section were cut at −120° C. using an Ultracut T/FCS (Leica) equipped with an antistatic device (Diatome) and a diamond knife (Drukker). Ultrathin sections were picked up in a mix of 1.8% methylcellulose and 2.3 M sucrose (1:1) (Liou et al., “Improving Structural Integrity of Cryosections for Immunogold Labeling,” Histochemistry and Cell Biology 106:41-58 (1996), which is hereby incorporated by reference in its entirety). Cryosections were collected on formvar-coated copper grids and incubated with Ras10 monoclonal antibody (Upstate, Charlottesville, Va.) followed by rabbit anti-mouse antibodies and then protein A gold (Slot et al., “A New Method of Preparing Gold Probes for Multiple-Labeling Cytochemistry,” Eur. J. Cell. Biol. 38:87-93 (1985), which is hereby incorporated by reference in its entirety). After labeling, the sections were treated with 1% glutaraldehyde, counterstained with uranyl acetate, and embedded in methyl cellulose-uranyl acetate (Slot et al., “Immuno-Localization of the Insulin Regulatable Glucose Transporter in Brown Adipose Tissue of the Rat,” J. Cell. Biol. 113:123-135 (1991), which is hereby incorporated by reference in its entirety). Images were acquired with a JEOL electron microscope JEM-1200 EX II at 80 kV.

Data set [2] has as its system NIH3T3 cells transformed with K-Ras12V or K-Ras12V181A. Description: Apoptosis of K-Ras transformed fibroblasts. Type of data set: cell-based. An excerpt: To confirm that K-Ras12V phosphorylated on S181, like phosphomimetic K-Ras12V181E, is pro-apoptotic, the capacity of PKC agonists to induce apoptosis of K-Ras transformed fibroblasts was examined. […] Thus, the sensitization to PKC-mediated apoptosis afforded by K-Ras transformation can be attributed to phosphorylation at S181.

The subject of data set [3] is NIH 3T3 cells stably transfected with K-Ras12V or K-Ras12V181A. Kind of data set: Soft agar assay. To be noted: two weeks. It counts as cell-based. The procedure:
NIH 3T3 cells stably transfected with pCGN-hyg, or the same vector encoding K-Ras12V or K-Ras12V 181 A were plated as single cell suspensions (2×10^4 cells/35-mm well) in 0.4% agar over a bottom layer of 0.6% agar, both containing DMSO vehicle or various concentrations of bryostatin-1. After two weeks, the percentage of plated cells that formed colonies (>5 cell diameters across) was determined.

In a further data set the test system is K-Ras. Description: Metabolic labeling with [32P]orthophosphate of COS-1 cells expressing K-Ras constructs. Type of data set: cell-based, human. The following applies: 100 nM bryostatin-1 for 20 min. On the procedure: Twenty-four hours after transfection with various K-Ras constructs, COS-1 cells were pre-incubated at 37° C. for 4 hours in phosphate-free DMEM containing 10% dialyzed fetal calf serum (“FCS”). The medium was then replaced with phosphate-free DMEM containing 2 mCi of [^32P]orthophosphate. After 6 hours of labeling, the cells were stimulated with 100 nM bryostatin-1 for 20 min at 37° C. Jurkat cells were rinsed three times with prewarmed phosphate-free DMEM, and then incubated at 37° C. for 6 hours in phosphate-free DMEM containing 10% FBS (3:1 undialyzed:dialyzed) and 0.5 mCi/ml [^32P]orthophosphate. After incubation, the ^32P-labeled cells were rinsed with prewarmed phosphate-free DMEM, and then stimulated with either anti-CD3 (10 μg/ml) or vehicle control for 30 min at 37° C. Both types of cells were then lysed in RIPA buffer containing protease inhibitors (Roche, Basel, Switzerland) and 10 μM microcystin and 5 mM NaF. K-Ras was immunoprecipitated using agarose conjugated with Y13-259 monoclonal anti-Ras antibody (Santa Cruz Biotechnology, Inc., Santa Cruz, Calif.), analyzed by SDS-PAGE and visualized by phosphorimager.

The subject of a further data set is K-Ras12V and Bcl-XL. Description: Colocalization and FRET between K-Ras12V and Bcl-XL on mitochondria. Type of data set: cell-based, human. On the procedure: as §1
Where [4] appears, read: 100 nM bryostatin-1, living cells.

In the case of `Cn1cc(C2=C(c3cn(CCCSC(=N)N)c4ccccc34)C(=O)NC2=O)c2ccccc21` [Ro 31-8220], the “effect of inhibitor pretreatment on stimulated K-Ras translocation” value in the data set with GFP-K-Ras is “completely blocked”.

On to `NCCCCNS(=O)(=O)c1ccc2c(Cl)cccc2c1` [W-13], for which, in the data set with GFP-K-Ras, the “effect of inhibitor pretreatment on stimulated K-Ras translocation” value was “had no effect”.

With `CCC/C=C/C=C/C(=O)O[C@H]1/C(=C/C(=O)OC)C[C@H]2C[C@H]([C@@H](C)O)OC(=O)C[C@H](O)C[C@@H]3C[C@H](OC(C)=O)C(C)(C)[C@](O)(C[C@@H]4C/C(=C/C(=O)OC)C[C@H](/C=C/C(C)(C)[C@]1(O)O2)O4)O3` [bryostatin-1], the clinical efficacy entry with a variety of tumors (variety of tumors) is listed as “exhibited clinical efficacy”. Also, the toxicity result with a variety of tumors is on record as “minimal toxicity”. The “growth of tumors established with K-Ras12V181A transformed fibroblasts” value in data set [1] is reported as “resistant”. Besides, the “growth of tumors established with K-Ras12V transformed fibroblasts” value in data set [1] (p<0.05, ANOVA) is reported as “sensitive”. Also, the “10 nm gold particles per area of cytoplasm (excluding plasma membrane)” value with endogenous Ras (100 nM bryostatin-1 30 min, untreated 6.4±0.5) was 31.0±1.1 gold particles/μm^2. Besides, in the data set with endogenous Ras (bryostatin-1 treated), the “gold particles associated with mitochondria” value turned out to be 49% and the “mitochondria associated gold particles located within 30 nm of the outer mitochondrial membrane” value came to 81%. Also, the “induction of apoptosis in K-Ras12V versus K-Ras12V181A transformed cells” value in data set [2] was “induced apoptosis to a much higher extent in cells transformed with K-Ras12V than those transformed with K-Ras12V181A”. The “soft agar growth induced by K-Ras12V181A” value in data set [3] (K-Ras12V181A) was “insensitive”. Moreover, the “K-Ras12V induced colony growth of fibroblasts in soft agar” value in data set [3] (K-Ras12V) was “inhibited”. In addition, the “phosphorylation of K-Ras (32P incorporation)” value in the data set with K-Ras is “induced phosphorylation”. Further, the “FRET efficiency between YFP-K-Ras12V and CFP-Bcl-XL on treated mitochondria” value in the data set on K-Ras12V and Bcl-XL (Cos-1 cell, 5 min after bryostatin-1) was found to be 17±8%. Besides, in the data set on K-Ras12V and Bcl-XL (after stimulation with PKC agonist), the “colocalization of CFP-K-Ras12V with YFP-Bcl-XL on outer mitochondrial membrane” value is “colocalized with YFP-Bcl-XL”. Further, in the data set on GFP-K-Ras (setting [4]), the “onset of translocation of GFP-K-Ras from the plasma membrane to intracellular membranes” value is on record as below 1 min and the “time to maximal translocation of GFP-K-Ras from the plasma membrane to intracellular membranes” value came out at 3 min. Also, the “reversibility of effect on K-Ras localization” value in the data set with GFP-K-Ras (COS-1 cells, GFP-K-Ras12V, 3 min treatment, 10 min washout) is listed as “reversible”. Moreover, the “association of GFP-K-Ras / GFP-H-Ras with mitochondria” value in the data set with GFP-K-Ras (MDCK cell lines stably expressing at endogenous levels, MitoTracker Red) is reported as “stimulated rapid association of GFP-K-Ras but not GFP-H-Ras with mitochondria”.

`C=C1[C@@H](O)[C@@H]2O[C@]3(CC[C@H](/C=C/[C@@H](C)[C@@H]4CC(C)=C[C@@]5(O[C@H](C[C@@](C)(O)C(=O)O)CC[C@H]5O)O4)O3)CC[C@H]2O[C@@H]1[C@@H](O)C[C@H](C)[C@H]1O[C@@]2(CCCCO2)CC[C@H]1C` [okadaic acid]: the “effect on GFP-K-Ras localization (translocation/internalization)” value in the data set with GFP-K-Ras (100 nM PMA with or without 500 ng/ml ionomycin, compared with bryostatin-1) was “induced partial internalization”.
